The results in this text go back to ChEMBL document CHEMBL1135615.

In assay [1] the target is 4-aminobutyrate aminotransferase, mitochondrial (Homo sapiens) (UniProt P80404). Nature of the assay: Time dependent inactivation of Gamma-amino-N-butyrate transaminase. The note with it: Cavia porcellus.
The nature of assay [2]: Ratio of kinact to that of KI.

4-aminobutyrate aminotransferase, mitochondrial (Homo sapiens), sequence (P80404 whole entry): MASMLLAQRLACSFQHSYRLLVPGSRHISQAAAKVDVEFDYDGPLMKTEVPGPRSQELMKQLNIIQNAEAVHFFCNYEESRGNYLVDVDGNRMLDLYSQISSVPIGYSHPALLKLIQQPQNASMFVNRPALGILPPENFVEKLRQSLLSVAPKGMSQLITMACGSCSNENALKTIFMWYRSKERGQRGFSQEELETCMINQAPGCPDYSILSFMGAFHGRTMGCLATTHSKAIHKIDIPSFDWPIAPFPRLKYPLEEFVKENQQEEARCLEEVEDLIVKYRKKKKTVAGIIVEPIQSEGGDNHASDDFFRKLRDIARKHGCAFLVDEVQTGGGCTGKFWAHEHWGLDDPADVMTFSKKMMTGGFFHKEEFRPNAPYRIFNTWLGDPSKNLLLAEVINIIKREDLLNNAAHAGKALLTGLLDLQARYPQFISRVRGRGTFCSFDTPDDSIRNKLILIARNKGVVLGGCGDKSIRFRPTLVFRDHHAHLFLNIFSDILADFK

As for `N[C@@H]1C=CCC[C@@H]1C(=O)O`, the K inact in assay [1] was 0.03 min⁻¹. In assay [2], the Ratio was 0.0024.
In assay [1], `N[C@@H]1C=CC[C@H](C(=O)O)C1` showed a K inact of 0.01 min⁻¹. In addition, the Ratio in assay [2] was found to be 0.0042.
